Test results reported in patent US20240376099A1, “COMPOUNDS AND COMPOSITIONS AS INHIBITORS OF ENDOSOMAL TOLL-LIKE RECEPTORS” (Novartis AG, priority 2016, published 2024).
pIC50: −log10 of the molar value.

These molecules were tested against T1, TLR9 (Homo sapiens, UniProt Q9NR96) (assay: huPBMC TLR9 Antagonist IFNα Assay). Conditions: human PBMCs stimulated with ODN2216 0.3 μM, 14-16 hrs; IFNα2b AlphaLISA read-out.
T1 construct: Fresh blood was collected from normal human donors; endogenous in cells; host or cells: human PBMCs from fresh donor blood
T1 sequence (Q9NR96 26-1032): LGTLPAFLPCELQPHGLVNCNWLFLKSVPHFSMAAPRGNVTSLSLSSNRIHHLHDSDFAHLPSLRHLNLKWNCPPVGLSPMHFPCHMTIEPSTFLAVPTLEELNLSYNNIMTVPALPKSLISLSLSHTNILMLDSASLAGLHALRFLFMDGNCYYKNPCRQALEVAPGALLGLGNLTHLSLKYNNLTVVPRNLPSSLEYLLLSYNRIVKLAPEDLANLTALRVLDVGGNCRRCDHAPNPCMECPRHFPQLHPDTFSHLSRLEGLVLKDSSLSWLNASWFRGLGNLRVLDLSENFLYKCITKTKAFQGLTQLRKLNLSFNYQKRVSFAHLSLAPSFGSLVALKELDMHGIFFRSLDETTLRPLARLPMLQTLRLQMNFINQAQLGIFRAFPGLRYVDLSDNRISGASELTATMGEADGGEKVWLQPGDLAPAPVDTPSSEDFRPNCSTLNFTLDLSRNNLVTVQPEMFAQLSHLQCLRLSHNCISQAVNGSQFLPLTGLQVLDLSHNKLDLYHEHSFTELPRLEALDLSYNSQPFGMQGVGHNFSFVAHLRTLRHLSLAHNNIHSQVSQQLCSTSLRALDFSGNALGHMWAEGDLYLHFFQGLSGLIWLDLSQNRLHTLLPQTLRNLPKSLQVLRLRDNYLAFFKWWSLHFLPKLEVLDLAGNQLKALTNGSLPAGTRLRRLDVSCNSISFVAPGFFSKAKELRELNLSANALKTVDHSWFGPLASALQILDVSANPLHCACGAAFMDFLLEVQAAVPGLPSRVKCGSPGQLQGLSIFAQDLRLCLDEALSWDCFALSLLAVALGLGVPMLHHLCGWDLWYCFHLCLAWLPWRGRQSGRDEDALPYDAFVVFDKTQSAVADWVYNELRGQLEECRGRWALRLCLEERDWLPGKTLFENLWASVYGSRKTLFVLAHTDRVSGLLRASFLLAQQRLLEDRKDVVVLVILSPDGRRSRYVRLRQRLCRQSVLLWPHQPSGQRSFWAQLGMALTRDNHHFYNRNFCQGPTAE
Format: cell-based
Outline: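 Human PBMCs from fresh donor blood (150,000 cells/well) stimulated 14–16 h at 37 °C with DOTAP-complexed ssRNA40 (final 1 μg/ml for TLR8, 10 μg/mL for TLR7) or ODN2216 (final 0.3 μM, TLR9), 0.25% DMSO, ten-point 1/3 compound dilutions. Supernatant IL-6 read by HTRF (TLR8); IFNα by IFNα2b AlphaLISA (TLR7/TLR9).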

pIC50	SMILES
6.02	Cc1cc(N2CCc3c(c(C)nn3CC34CCC(N5CC[C@H](O)C5)(CC3)CC4)C2)c2cnn(C)c2n1 [compound 75, (S)-1-(4-((5-(1,6-dimethyl-1H-pyrazolo[3,4-b]pyridin-4-yl)-3-methyl-4,5,6,7-tetrahydro-1H-pyrazolo[4,3-c]pyridin-1-yl)methyl)bicyclo[2.2.2]octan-1-yl)pyrrolidin-3-ol]
7.19	Cc1cc(N2CCc3c(c(C)nn3CC34CCC(N(C)C5CCC5)(CC3)CC4)C2)c2cnn(C)c2n1 [compound 79, N-cyclobutyl-4-((5-(1,6-dimethyl-1H-pyrazolo[3,4-b]pyridin-4-yl)-3-methyl-4,5,6,7-tetrahydro-1H-pyrazolo[4,3-c]pyridin-1-yl)methyl)-N-methylbicyclo[2.2.2]octan-1-amine]
6.60	Cc1cc(N2CCc3c(c(C)nn3CC34CCC(N5C[C@H](O)[C@@H](O)C5)(CC3)CC4)C2)c2cnn(C)c2n1 [compound 80, (3S,4S)-1-(4-((5-(1,6-dimethyl-1H-pyrazolo[3,4-b]pyridin-4-yl)-3-methyl-4,5,6,7-tetrahydro-1H-pyrazolo[4,3-c]pyridin-1-yl)methyl)bicyclo[2.2.2]octan-1-yl)pyrrolidine-3,4-diol]
6.24	Cc1nn(CC23CCC(N4CCCC4)(CC2)CC3)c2c1CN(c1ccnc(-c3ccccc3)c1)CC2 [compound 85, 3-methyl-5-(2-phenylpyridin-4-yl)-1-((4-(pyrrolidin-1-yl)bicyclo[2.2.2]octan-1-yl)methyl)-4,5,6,7-tetrahydro-1H-pyrazolo[4,3-c]pyridine]
5.56	Cc1cc(N2CCc3c(c(C)nn3CC34CCC(N5CCCC5)(CC3)CC4)C2)c2ccncc2n1 [compound 86, 2-methyl-4-(3-methyl-1-((4-(pyrrolidin-1-yl)bicyclo[2.2.2]octan-1-yl)methyl)-6,7-dihydro-1H-pyrazolo[4,3-c]pyridin-5(4H)-yl)-1,7-naphthyridine]
6.67	Cc1cc(N2CCc3c(c(C)nn3CCC34CCC(N)(CC3)CC4)C2)c2cnn(C)c2n1 [compound 91, 4-(2-(5-(1,6-dimethyl-1H-pyrazolo[3,4-b]pyridin-4-yl)-3-methyl-4,5,6,7-tetrahydro-1H-pyrazolo[4,3-c]pyridin-1-yl)ethyl)bicyclo[2.2.2]octan-1-amine]
7.03	Cc1cc(N2CCc3c(c(C)nn3CC34CCC(N)(CC3)CC4)C2)c2ccnc(C)c2n1 [compound 92, 4-((5-(2,8-dimethyl-1,7-naphthyridin-4-yl)-3-methyl-4,5,6,7-tetrahydro-1H-pyrazolo[4,3-c]pyridin-1-yl)methyl)bicyclo[2.2.2]octan-1-amine]
